{"source": "patent US8592451B2", "about": "“Reversible nondepolarizing neuromuscular blockade agents and methods for their use” (Cornell University, priority 2009, dated 2013)", "key": {"[1]": {"system": "twitch of the extensor digitorum", "assay": "Reversal of neuromuscular blockade by L-cysteine or neostigmine in anesthetized rhesus monkeys", "assay_type": "in vivo, rhesus monkeys (Macaca mulatta)", "description": "A control dose of 0.15 mg/kg CW 002 was allowed to recover spontaneously to TOF 110-120%. A second dose was given 60 minutes later, followed one minute afterwards by either neostigmine (0.05 mg/kg+atropine 0.05 mg/kg) or L-cysteine (10, 20, 30 or 50 mg/kg). Total duration and 5-95% recovery intervals were compared during spontaneous recovery vs. antagonism by L-cysteine or reversal by neostigmine.\nThis series of paired comparisons was designed to generate dose-response data comparing spontaneous recovery of high doses of CW 011 (from 4 to 64× ED95) versus immediate antagonism at +1 min by an optimal dose of L-cysteine (50 mg/kg), previously determined during studies of immediate antagonism of CW 002. This experiment was done to explore the limits of chemical antagonism by L-cysteine of these olefinic diester neuromuscular blocking drugs, using CW 011 as a typical example with an intermediate duration of action. Five groups of animals first received a control dose of CW 011 at 4, 8, 16, 32 or 64× ED 95 (0.1 to 1.6 mg/kg). Sixty minutes after spontaneous recovery of the control dose to TOF 110-120%, the same dose was repeated, followed 1 min later by L-cysteine (50 mg/kg). Total duration of action and 5-95% recovery interval were compared during spontaneous recovery and following antagonism by L-cysteine\nThe reversal of neuromuscular blockade by cysteine (5-50 mg/kg i.v.) was studied. Reversal was tested as follows: full paralysis was induced by injection of a dose of approximately 2-6× ED 95 of the compound in question. After spontaneous recovery of this dose, a second identical dose was given 15-30 min later. Cysteine was then given at +1 min after injection of the neuromuscular blocking drug at a point where no twitch was apparent (“immediate reversal”) or at the beginning of recovery from neuromuscular blockade at two percent twitch height (“classical reversal”). Comparisons were made among compounds with respect to rapidity and ease of cysteine reversal, by comparing 5-95% recovery times, and total durations of action (injection to 95% twitch recovery). Spontaneous recovery was compared with cysteine-accelerated recovery. […]"}, "[2]": {"assay": "L-cysteine adduction kinetics in vitro (HPLC)", "assay_type": "physicochemical", "settings": "pH 7.4, 37° C.; for NMBA peak area / [NMBA] remaining / ln* = ln (([NMBA]t[L-cysteine]t=0)/([NMBA]t=0[L-cysteine]t)): CW 011 1000 μg/mL + 1.05 equiv. L-cysteine", "description": "In a second experiment, to evaluate degradation in the presence of L-cysteine, buffered solutions (pH 7.4) of gantacurium, CW 002 or CW 011 were freshly prepared at 37° C. to give experimental concentrations of 1000 μg/mL (CW 002 and CW 011) and 200 μg/mL (gantacurium), after addition to and mixing with a 5% Molar excess of L-cysteine at time=0.\nThe concentration of neuromuscular blocking agent/parent compound remaining at specified time points after mixing was determined by high performance liquid chromatography. The concentration of blocking agent at each time point was determined from a separately prepared reaction mixture, due to the rapid rate of L-cysteine adduction. The reaction rate constant for the second order reaction of each neuromuscular blockade agent (NMBA) with L-cysteine was derived by plotting the natural log of ([NMBA]t[L-cysteine]t=0/[NMBA]t=0[L-cysteine]t) vs. time.\nConcentrations selected were 200, 100 and 50 μg/ml which are approximately proportional to the relative potencies (ED 95) of gantacurium, CW 002 and CW 011 respectively. A degradation (adduction) pathway in the presence of L-cysteine for each of the three compounds was proposed.\nThe reaction of L-cysteine with CW 002, CW 011 or gantacurium is first order in the case of both the neuromuscular blockade agent (NMBA) and L-cysteine, represented by the rate equation (1). d[Adduct]/dt=−d[NMBA]/dt=ka[NMBA][L-cysteine] (1)\nCalculation of the L-cysteine adduction half time requires experimental derivation of the reaction rate constant, ka, for each compound. The initial concentrations of NMBA and L-cysteine are unequal in the experiments conducted for this study, thus integration of equation 1 gives equation 2, where [NMBA]0 is the NMBA concentration at time equals 0 and [NMBA]t is the NMBA concentration at a time point, t.\n[formula] A plot of the ln(([NMBA]t [L-cysteine]0)/([NMBA]0 [L-cysteine]t)) versus time (ln* vs. t) gives a line, with slope equal to ka([NMBA]0−[L-cysteine]0). An adduction reaction half time can be calculated by solving for ka to be used in equation 3.\nNMBA standard solutions were prepared by a method similar to that used to prepare hydrolysis standards. The standards were prepared at 1000 μg/mL for CW 002 and CW 011 and 200 μg/mL for gantacurium.\nSolutions used for determination of NMBA concentration at the reported times for CW 002 and CW 011 were prepared as follows: L-cysteine hydrochloride monohydrate was charged to a volumetric flask in de-ionized water. A 5 mL aliquot of the L-cysteine solution (1.05 equiv. L-cysteine with respect to NMBA) was transferred by volumetric pipette to a flask held at 37.0±0.3° C. CW 002 or CW 011 was then charged to a separate 25 mL volumetric flask and diluted to volume with pH 7.4 phosphate buffer at 37.0° C. The NMBA solution was then immediately transferred to the flask containing L-cysteine to give an initial NMBA concentration of 1000 μg/mL. Solutions used for determination of gantacurium concentration versus time were prepared in a similar manner to give an initial concentration of 200 μg/mL. T=0 was defined as the time of addition of NMBA solution to L-cysteine solution. The times listed in the results table show the point of HPLC sample injection following mixing of L-cysteine and NMBA at time=0 (Table 1, below).\nRate constants were calculated using equation (3) and the slope of the trend line derived from each data set. The strong linear correlation of the data within each set supports the use of second order kinetics for analysis of the cysteine adduction reactions.\nReaction half times were calculated using equation 4 and the experimentally determined rate constants. The initial NMBA concentrations were chosen to reflect the relative potency observed in vivo."}}}
{"smiles": "COc1ccc(C[C@@H]2c3cc(OC)c(OC)cc3CC[N@@+]2(C)CCCOC(=O)/C=C\\C(=O)OCCC[N@+]2(C)CCc3cc(OC)c(OC)cc3[C@H]2Cc2cc(OC)c(OC)c(OC)c2)cc1OC", "note": "[CW 011]", "values": [{"measurement": "time to reversal of blockade with cysteine (FIG. 2B)", "setting": "[1]; CW 011, all cysteine concentrations tested (10 mg/kg to 50 mg/kg as worded elsewhere in the source)", "result": "less than 6 minutes"}, {"measurement": "time from cysteine administration to beginning of reversal (FIG. 2B)", "setting": "[1]; CW 011, higher cysteine doses", "result": "2 to 3", "unit": "min"}, {"measurement": "time to spontaneous reversal of blockade (FIG. 2)", "setting": "[1]; CW 011, no reversal agent", "result": "more than 12 minutes"}, {"measurement": "reversibility of neuromuscular blockade by thiol compounds", "setting": "[1]; cysteine (L or D) or glutathione", "result": "reversible"}, {"measurement": "effect of neostigmine given immediately after the blocking drug", "setting": "[1]; immediate reversal", "result": "ineffective"}, {"measurement": "spontaneous reversal rate (FIG. 2A)", "setting": "[1]; increasing doses of CW 011 (4 to 64× ED95), no reversal agent", "result": "decreases with increasing CW 011 dose"}, {"measurement": "classical antagonism of neuromuscular blockade by neostigmine", "setting": "[1]; neostigmine given at beginning of spontaneous recovery, e.g. at 2% twitch height", "result": "showed antagonism"}, {"measurement": "NMBA peak area", "setting": "[2]; Trial 1, 123 Sec", "result": 2587.0, "unit": "mAU's"}, {"measurement": "[NMBA] remaining", "setting": "[2]; Trial 1, 123 Sec", "result": 228, "unit": "µM"}, {"measurement": "ln* = ln (([NMBA]t[L-cysteine]t=0)/([NMBA]t=0[L-cysteine]t))", "setting": "[2]; Trial 1, 123 Sec", "result": "−0.248"}, {"measurement": "NMBA peak area", "setting": "[2]; Trial 2, 132 Sec", "result": 2500.5, "unit": "mAU's"}, {"measurement": "[NMBA] remaining", "setting": "[2]; Trial 2, 132 Sec", "result": 221, "unit": "µM"}, {"measurement": "ln* = ln (([NMBA]t[L-cysteine]t=0)/([NMBA]t=0[L-cysteine]t))", "setting": "[2]; Trial 2, 132 Sec", "result": "−0.256"}, {"measurement": "NMBA peak area", "setting": "[2]; Trial 3, 143 Sec", "result": 2293.0, "unit": "mAU's"}, {"measurement": "[NMBA] remaining", "setting": "[2]; Trial 3, 143 Sec", "result": 202, "unit": "µM"}, {"measurement": "ln* = ln (([NMBA]t[L-cysteine]t=0)/([NMBA]t=0[L-cysteine]t))", "setting": "[2]; Trial 3, 143 Sec", "result": "−0.284"}, {"measurement": "NMBA peak area", "setting": "[2]; Trial 4, 182 Sec", "result": 1765.4, "unit": "mAU's"}, {"measurement": "[NMBA] remaining", "setting": "[2]; Trial 4, 182 Sec", "result": 155, "unit": "µM"}, {"measurement": "ln* = ln (([NMBA]t[L-cysteine]t=0)/([NMBA]t=0[L-cysteine]t))", "setting": "[2]; Trial 4, 182 Sec", "result": "−0.378"}, {"measurement": "Plot Slope (ln* vs. time)", "setting": "[2]; L-cysteine adduction, data of Table 1", "result": "−0.0023"}, {"measurement": "ka, second order rate constant of L-cysteine adduction", "setting": "[2]", "result": 24.7, "unit": "M⁻¹ s⁻¹"}, {"measurement": "half-life at 50 μg/ml", "setting": "[2]; pH 7.4 phosphate buffer with L-cysteine, calculated at [NMBA]0 0.0000493 M (50 μg/ml), read-out: L-cysteine adduction reaction half time t1/2", "result": 13.7, "unit": "min"}]}
